Measurements as given in patent US20250313535A1, “ALPHA 4 BETA 7 INTEGRIN MODULATORS AND USES THEREOF” (DICE MOLECULES SV, INC., priority 2022, published 2025).
pIC50: −log10 of the molar value. Like-named read-outs stand apart in the source and are kept apart here.

What was measured:
α4β7 integrin = α4β7 integrin (Homo sapiens (Human), UniProt P13612+P26010); assay: Integrin Adhesion Assay: Protocol 4 (MAdCAM-coated plate, RPMI-8866 cells with stable LOF mutation of the ITGB1 gene); format: cell-based
Method in brief: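 RPMI-8866 cells with CRISPR/Cas9 knockout of ITGB1 (2×10^6/mL) were added to MAdCAM-coated wells with compound (1% DMSO) in HEPES/NaCl buffer with 1 mM MnCl2, 0.1 mM CaCl2 and 1% BSA, then incubated 1 h at 37 °C. After four washes, adherent cells were quantified by CellTiter-Glo luminescence. Percent inhibition versus DMSO and control compound was fitted to 4-parameter curves.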

α4β1 integrin = α4β1 integrin (Homo sapiens (Human), UniProt P05556+P13612); assay: Integrin Adhesion Assay: Protocol 5 (VCAM-coated plate, RPMI-8866 cells with stable LOF mutation of the ITGB7 gene); format: cell-based
Method in brief: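 RPMI-8866 B cells with CRISPR/Cas9 ITGB7 knockout (clonal, verified by flow cytometry) adhered to VCAM-coated wells for 1 h at 37° C in HEPES/NaCl buffer with 1 mM MnCl2, 0.1 mM CaCl2, 1% BSA, 1% DMSO. Bound cells quantified by CellTiter-Glo luminescence after washing; % inhibition versus DMSO and control, 4-parameter fit.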

[1] = Protocol 4, RPMI-8866 cells with LOF mutation of ITGB1, MAdCAM, read-out: Mean IC50 α4β7 KO
[2] = Protocol 5, RPMI-8866 cells with LOF mutation of ITGB7, VCAM, read-out: Mean IC50 α4β1 KO
[3] = RPMI-8866 cells with stable LOF mutation of the ITGB1 gene, read-out: Mean IC50 α4β7 KO^a
[4] = RPMI-8866 cells with stable LOF mutation of the ITGB7 gene, read-out: Mean IC50 α4β1 KO^b

Sequence of α4β7 integrin (P13612 34-1032): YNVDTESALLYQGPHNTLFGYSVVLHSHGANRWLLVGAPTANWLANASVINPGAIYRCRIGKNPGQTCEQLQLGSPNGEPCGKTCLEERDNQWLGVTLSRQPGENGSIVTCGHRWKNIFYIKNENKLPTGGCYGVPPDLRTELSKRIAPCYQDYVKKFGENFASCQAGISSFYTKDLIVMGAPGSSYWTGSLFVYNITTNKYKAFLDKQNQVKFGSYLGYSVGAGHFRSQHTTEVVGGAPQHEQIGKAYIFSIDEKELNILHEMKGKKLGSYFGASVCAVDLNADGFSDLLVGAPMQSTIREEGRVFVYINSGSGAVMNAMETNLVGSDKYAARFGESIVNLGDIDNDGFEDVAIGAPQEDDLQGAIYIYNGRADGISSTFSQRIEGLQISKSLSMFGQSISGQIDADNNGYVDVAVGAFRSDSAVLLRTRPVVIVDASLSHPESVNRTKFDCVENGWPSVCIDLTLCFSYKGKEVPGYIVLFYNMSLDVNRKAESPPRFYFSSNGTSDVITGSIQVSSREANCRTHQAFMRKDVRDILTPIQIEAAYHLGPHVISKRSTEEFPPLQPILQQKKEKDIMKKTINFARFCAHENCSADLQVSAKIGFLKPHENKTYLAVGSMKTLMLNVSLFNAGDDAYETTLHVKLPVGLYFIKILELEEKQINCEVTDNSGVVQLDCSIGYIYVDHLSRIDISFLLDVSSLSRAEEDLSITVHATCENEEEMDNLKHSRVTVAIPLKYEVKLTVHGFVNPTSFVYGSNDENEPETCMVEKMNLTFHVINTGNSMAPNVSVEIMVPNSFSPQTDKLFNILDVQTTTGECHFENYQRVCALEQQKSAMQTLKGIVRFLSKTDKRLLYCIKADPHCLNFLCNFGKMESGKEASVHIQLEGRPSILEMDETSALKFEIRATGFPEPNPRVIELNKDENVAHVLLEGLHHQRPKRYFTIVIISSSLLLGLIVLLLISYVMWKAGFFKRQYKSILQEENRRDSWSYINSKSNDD
Sequence of α4β7 integrin (P26010 20-798): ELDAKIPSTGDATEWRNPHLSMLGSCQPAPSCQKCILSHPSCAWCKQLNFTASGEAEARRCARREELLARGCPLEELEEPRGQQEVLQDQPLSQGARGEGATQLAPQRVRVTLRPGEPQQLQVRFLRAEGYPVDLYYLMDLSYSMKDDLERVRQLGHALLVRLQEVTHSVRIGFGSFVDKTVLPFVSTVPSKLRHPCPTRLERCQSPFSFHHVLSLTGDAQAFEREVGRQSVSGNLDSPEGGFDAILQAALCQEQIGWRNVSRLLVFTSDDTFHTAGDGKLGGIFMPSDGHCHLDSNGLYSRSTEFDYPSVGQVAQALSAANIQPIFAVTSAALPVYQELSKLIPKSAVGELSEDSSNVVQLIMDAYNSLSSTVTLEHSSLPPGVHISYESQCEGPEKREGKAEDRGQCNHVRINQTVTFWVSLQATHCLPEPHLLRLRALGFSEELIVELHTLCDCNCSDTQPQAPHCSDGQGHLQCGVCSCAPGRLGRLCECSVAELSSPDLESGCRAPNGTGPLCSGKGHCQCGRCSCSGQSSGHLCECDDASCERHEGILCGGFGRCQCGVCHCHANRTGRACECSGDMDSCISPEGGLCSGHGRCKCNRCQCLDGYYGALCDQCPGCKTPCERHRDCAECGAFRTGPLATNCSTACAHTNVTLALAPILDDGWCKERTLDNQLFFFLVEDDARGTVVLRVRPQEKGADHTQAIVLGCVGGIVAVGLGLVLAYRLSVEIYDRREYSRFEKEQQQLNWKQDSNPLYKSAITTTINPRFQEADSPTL
Sequence of α4β1 integrin (P13612 34-1032): as the sequence (P13612 34-1032) above
Sequence of α4β1 integrin (P05556 21-798): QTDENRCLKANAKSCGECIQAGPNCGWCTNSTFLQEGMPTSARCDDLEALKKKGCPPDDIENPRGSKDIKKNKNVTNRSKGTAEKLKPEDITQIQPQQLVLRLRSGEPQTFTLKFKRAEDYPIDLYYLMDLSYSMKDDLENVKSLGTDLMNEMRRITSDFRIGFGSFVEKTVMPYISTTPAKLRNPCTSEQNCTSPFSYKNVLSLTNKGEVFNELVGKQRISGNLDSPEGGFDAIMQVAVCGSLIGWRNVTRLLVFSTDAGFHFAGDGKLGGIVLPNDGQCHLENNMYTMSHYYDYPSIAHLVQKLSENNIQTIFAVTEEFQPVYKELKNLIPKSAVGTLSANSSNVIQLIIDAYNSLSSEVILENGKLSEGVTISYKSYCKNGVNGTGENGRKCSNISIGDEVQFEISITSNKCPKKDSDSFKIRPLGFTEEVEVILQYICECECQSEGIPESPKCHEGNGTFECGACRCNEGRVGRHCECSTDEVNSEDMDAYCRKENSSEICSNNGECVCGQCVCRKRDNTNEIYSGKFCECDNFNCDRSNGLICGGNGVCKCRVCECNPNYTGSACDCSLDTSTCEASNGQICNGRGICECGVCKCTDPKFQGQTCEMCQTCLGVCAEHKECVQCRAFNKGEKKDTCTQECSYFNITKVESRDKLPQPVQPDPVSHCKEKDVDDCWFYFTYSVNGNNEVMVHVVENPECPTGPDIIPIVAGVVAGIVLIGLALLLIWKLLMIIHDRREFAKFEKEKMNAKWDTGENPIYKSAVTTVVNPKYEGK

Row | pIC50 (α4β7 integrin; [1]) | pIC50 (α4β1 integrin; [2]) | pIC50 (α4β7 integrin; [3]) | pIC50 (α4β1 integrin; [4]) | SMILES
1 | 7.00 to 8.00 | < 6.00 | – | – | COc1ccc(CN2CC(c3ccccc3)C2)c(OC)c1-c1cccc2c(C[C@H](NC(=O)C3(C(F)(F)F)CCN(CC(F)(F)F)CC3)C(=O)O)cccc12 [Compound 815]
2 | – | – | > 8.00 | < 6.00 | COc1ccc(CN2CCC(F)(F)CC2)c(OC)c1-c1cccc2c(C[C@H](NC(=O)C3(C(F)(F)F)CCN([C@@H]4COC[C@@H]4F)CC3)C(=O)O)cccc12 [Compound 668]
3 | 7.00 to 8.00 | < 6.00 | – | – | O=C(O)[C@H](Cc1cccc2c(-c3ncc(CN4CCC(F)(F)CC4)c4ccccc34)cccc12)NC(=O)C1(C(F)(F)F)CCN(CC(F)(F)F)CC1 [Compound 853]
4 | > 8.00 | 6.00 to 7.00 | – | – | CN(C)CCc1cccc2c(-c3cccc4c(C[C@H](NC(=O)C5(C(F)(F)F)CCN(CC(F)(F)F)CC5)C(=O)O)cccc34)nccc12 [Compound 1042]
5 | – | – | 7.00 to 8.00 | < 6.00 | Cn1c(=O)c(-c2cccc3c(C[C@H](NC(=O)C4(C(F)(F)F)CCN(C5CCOC(C(F)(F)F)C5)CC4)C(=O)O)cccc23)c(C(F)(F)F)c2ccccc21 (stereo partly drawn) [Compound 514]
6 | > 8.00 | < 6.00 | – | – | O=C(O)[C@H](Cc1cccc2c(-c3ncc(CCCN4CCCCC4)c4ccccc34)cccc12)NC(=O)C1(C(F)(F)F)CCN(CC(F)(F)F)CC1 [Compound 730]
7 | – | – | > 8.00 | 6.00 to 7.00 | O=C(O)[C@H](Cc1cccc2c(-c3ncc(CN4CCCCC4)c4ccccc34)cccc12)NC(=O)C1(C(F)(F)F)CCN(C2COC2)CC1 [Compound 577]
8 | > 8.00 | 6.00 to 7.00 | – | – | Cc1cccc(F)c1C(=O)N[C@@H](Cc1cccc2c(-c3c(C(F)(F)F)c4cc(CN5CCCCC5)ccc4n(C)c3=O)cccc12)C(=O)O [Compound 1030]
9 | > 8.00 | 6.00 to 7.00 | – | – | COc1ccc(CCN2CCCCC2)cc1-c1cccc2c(C[C@H](NC(=O)C3(C(F)(F)F)CCN(CC(F)(F)F)CC3)C(=O)O)cccc12 [Compound 731]
10 | – | – | > 8.00 | 6.00 to 7.00 | Cn1c(=O)c(-c2cccc3c(C[C@H](NC(=O)C4(C(F)(F)F)CCN(C5COCC5(F)F)CC4)C(=O)O)cccc23)c(C(F)(F)F)c2ccccc21 (stereo partly drawn) [Compound 512]
11 | > 8.00 | 7.00 to 8.00 | – | – | COc1ccc2c(CN3CCCCC3)ccnc2c1-c1cccc2c(C[C@H](NC(=O)C3(C(F)(F)F)CCN(CC(F)(F)F)CC3)C(=O)O)cccc12 [Compound 722]
12 | – | – | 7.00 to 8.00 | 6.00 to 7.00 | Cn1c(=O)c(-c2cccc3c(C[C@H](NC(=O)C4(C(F)(F)F)CCN([C@@H]5CCC(F)(F)C5)CC4)C(=O)O)cccc23)c(C(F)(F)F)c2ccccc21 [Compound 494]
13 | – | – | > 8.00 | 6.00 to 7.00 | COc1ccc(CN(C)C)c(OC)c1-c1cccc2c(C[C@H](NC(=O)C3(C(F)(F)F)CCN(CC(F)(F)F)CC3)C(=O)O)cccc12 [Compound 455]
14 | > 8.00 | < 6.00 | – | – | O=C(O)[C@H](Cc1cccc2c(-c3nccc4ccc(CCN5CCCCC5)cc34)cccc12)NC(=O)C1(C(F)(F)F)CCN(CC(F)(F)F)CC1 [Compound 718]
15 | 7.00 to 8.00 | 6.00 to 7.00 | – | – | Cn1c(=O)c(-c2cccc3c(C[C@H](NC(=O)C4(C(F)(F)F)CCN(CC(F)(F)F)CC4)C(=O)O)cccc23)c(C(F)(F)F)c2cc(CN3CCC(c4ccccc4)CC3)ccc21 [Compound 837]
16 | > 8.00 | 6.00 to 7.00 | – | – | O=C(O)[C@H](Cc1cccc2c(-c3ncc(CN4CCOCC4)c4ccccc34)cccc12)NC(=O)C1(C(F)(F)F)CCN(CC(F)F)CC1 [Compound 878]
17 | 6.00 to 7.00 | < 6.00 | – | – | Cn1c(=O)c(-c2cccc3c(C[C@H](NC(=O)c4c(F)cccc4F)C(=O)O)cccc23)c(C(F)(F)F)c2cc(C3CCCO3)ccc21 (stereo partly drawn) [Compound 1046]
18 | – | – | > 8.00 | < 6.00 | O=C(O)[C@H](Cc1cccc2c(-c3nccc4ccccc34)cccc12)NC(=O)C1(C(F)(F)F)CCN(C2COC2)CC1 [Compound 497]

Second part, the molecule before the results:

Row | SMILES | pIC50 (α4β7 integrin; [1]) | pIC50 (α4β1 integrin; [2]) | pIC50 (α4β7 integrin; [3]) | pIC50 (α4β1 integrin; [4])
19 | COc1ccnc(OC)c1-c1cccc2c(C[C@H](NC(=O)c3c(C)cccc3F)C(=O)O)cccc12 [Compound 527] | – | – | 7.00 to 8.00 | < 6.00
20 | COc1cc(CCN2CCCCC2)cnc1-c1cccc2c(C[C@H](NC(=O)C3(C(F)(F)F)CCN(CC(F)(F)F)CC3)C(=O)O)cccc12 [Compound 983] | > 8.00 | < 6.00 | – | –
21 | COC(=O)[C@H](Cc1cccc2c(-c3ncc(CN(C)C)c4ccccc34)cccc12)NC(=O)C1(C(F)(F)F)CCN(CC(F)F)CC1 [Compound 778] | > 8.00 | 6.00 to 7.00 | – | –
22 | Cc1cccc(F)c1C(=O)N[C@@H](Cc1cccc2c(-c3ncccc3CN3CCCCC3)cccc12)C(=O)O [Compound 1021] | 7.00 to 8.00 | < 6.00 | – | –
23 | Cc1cccc(F)c1C(=O)N[C@@H](Cc1cccc2c(-c3c(C(F)(F)F)c4cc(CN(C)C)ccc4n(C)c3=O)cccc12)C(=O)O [Compound 451] | – | – | > 8.00 | 6.00 to 7.00
24 | O=C(O)[C@H](Cc1cccc2c(-c3ncc(CN4CCC[C@H](F)C4)cc3C3CC3)cccc12)NC(=O)C1(C(F)(F)F)CCN(CC(F)(F)F)CC1 [Compound 950] | > 8.00 | < 6.00 | – | –
25 | COc1cccc(CN2CC3CCC(C2)O3)c1-c1cccc2c(C[C@H](NC(=O)c3c(C)cccc3F)C(=O)O)cccc12 [Compound 1028] | 7.00 to 8.00 | < 6.00 | – | –
26 | CCOCc1cc(OC)c(-c2cccc3c(C[C@H](NC(=O)C4(C(F)(F)F)CCN(CC(F)(F)F)CC4)C(=O)O)cccc23)cc1CN1CCCCC1 [Compound 768] | > 8.00 | 6.00 to 7.00 | – | –
27 | COc1ccc(CN2CCC(F)(F)CC2)c(OC)c1-c1cccc2c(C[C@H](NC(=O)c3c(C)cc4cnn(CC(F)(F)F)c4c3F)C(=O)O)cccc12 [Compound 609] | – | – | 7.00 to 8.00 | 6.00 to 7.00
28 | Cc1cc(CN2CCCCC2)cnc1-c1cccc2c(C[C@H](NC(=O)C3(C(F)(F)F)CCN(CC(F)(F)F)CC3)C(=O)O)cccc12 [Compound 880] | > 8.00 | < 6.00 | – | –
29 | COc1ccc(CN2CCCCC2)nc1-c1cccc2c(C[C@H](NC(=O)C3(C(F)(F)F)CCN(CC(F)(F)F)CC3)C(=O)O)cccc12 [Compound 798] | > 8.00 | < 6.00 | – | –
30 | COc1cc2c(cc1-c1cccc3c(C[C@H](NC(=O)c4c(C)cccc4F)C(=O)O)cccc13)CN(CC(F)F)CC2 [Compound 1006] | 7.00 to 8.00 | 6.00 to 7.00 | – | –
31 | COc1cc(CN2CCC(C(F)(F)F)CC2)cnc1-c1cccc2c(C[C@H](NC(=O)C3(C(F)(F)F)CCN(CC(F)F)CC3)C(=O)O)cccc12 [Compound 925] | > 8.00 | < 6.00 | – | –
32 | Cc1cc(CCN2CCCCC2)cnc1-c1cccc2c(C[C@H](NC(=O)C3(C(F)(F)F)CCN(CC(F)F)CC3)C(=O)O)cccc12 [Compound 756] | > 8.00 | < 6.00 | – | –
33 | COc1cccc(CN2CCC(C)(C)CC2)c1-c1cccc2c(C[C@H](NC(=O)c3c(C)cccc3F)C(=O)O)cccc12 [Compound 1017] | > 8.00 | 6.00 to 7.00 | – | –
34 | COc1cc(CN2CCCCC2)cc(Cl)c1-c1cccc2c(C[C@H](NC(=O)C3(C(F)(F)F)CCN(CC(F)(F)F)CC3)C(=O)O)cccc12 [Compound 804] | > 8.00 | 6.00 to 7.00 | – | –
35 | COc1ccc(CN2CCC(F)(F)CC2)nc1-c1cccc2c(C[C@H](NC(=O)c3c(C)cccc3F)C(=O)O)cccc12 [Compound 600] | – | – | 7.00 to 8.00 | < 6.00
36 | COc1cc(CCN(C)C)cc(OC)c1-c1cccc2c(C[C@H](NC(=O)C3(C(F)(F)F)CCN(CC(F)(F)F)CC3)C(=O)O)cccc12 [Compound 531] | – | – | > 8.00 | 6.00 to 7.00
37 | COc1cccc(CCN2CCC(c3ccccc3)CC2)c1-c1cccc2c(C[C@H](NC(=O)C3(C(F)(F)F)CCN(CC(F)F)CC3)C(=O)O)cccc12 [Compound 975] | > 8.00 | 6.00 to 7.00 | – | –
38 | COc1ccc(CCN2CCCCC2)c(C(F)(F)F)c1-c1cccc2c(C[C@H](NC(=O)c3c(C)cccc3F)C(=O)O)cccc12 [Compound 1004] | > 8.00 | 6.00 to 7.00 | – | –
39 | O=C(O)[C@H](Cc1cccc2c(-c3ncc(CN4CCCCC4)cc3C(F)(F)F)cccc12)NC(=O)C1(C(F)(F)F)CCN(CC(F)(F)F)CC1 [Compound 881] | 7.00 to 8.00 | < 6.00 | – | –
40 | CN(C)CCc1cc(-c2cccc3c(C[C@H](NC(=O)C4(C(F)(F)F)CCN(CC(F)(F)F)CC4)C(=O)O)cccc23)c2cnccc2c1 [Compound 469] | – | – | 7.00 to 8.00 | 6.00 to 7.00
41 | O=C(N[C@@H](Cc1cccc2c(-c3cccc4cccnc34)cccc12)C(=O)O)c1c(F)cccc1F [Compound 500] | – | – | < 6.00 | < 6.00
42 | COc1cc(CN2CCC(C)(C)CC2)cnc1-c1cccc2c(C[C@H](NC(=O)c3c(C)cccc3F)C(=O)O)cccc12 [Compound 1005] | 7.00 to 8.00 | < 6.00 | – | –
43 | COc1ccc(CN2CCCCC2C)c(OC)c1-c1cccc2c(C[C@H](NC(=O)c3c(C)cccc3F)C(=O)O)cccc12 (stereo partly drawn) [Compound 631] | – | – | > 8.00 | 6.00 to 7.00
44 | COc1ccc2c(c1-c1cccc3c(C[C@H](NC(=O)c4c(C)cccc4F)C(=O)O)cccc13)CCN(CC(F)(F)F)C2 [Compound 997] | 7.00 to 8.00 | < 6.00 | – | –
45 | O=C(O)[C@H](Cc1cccc2c(-c3ncc(CN4CCCCC4)c4c3CCCC4)cccc12)NC(=O)C1(C(F)(F)F)CCN(CC(F)(F)F)CC1 [Compound 746] | > 8.00 | < 6.00 | – | –
